Assay results published in patent publication US5574173A, “Tricyclic derivatives, compositions and methods of use” (Schering Corporation, priority 1993, dated 1996).

Columns and labels:
LPS-Induced Serum TNF = assay: In vivo inhibition of LPS-induced serum TNF in mice; design: species or system mice (C57BI/6J); conditions: Mus musculus, 1.5 h; 25 mg/kg oral or i.p. one hour before LPS (50 μg i.p.); bled 90 min after LPS; ELISA; values may have a wide margin of error
Protocol: In addition to the in vitro test described above, the following in vivo test was also performed on several of the compounds of the present invention.
1. In Vivo Study: Inhibition of LPS-Induced Serum TNF
Mice (C57BI/6J males, 6-8 weeks of age) are dosed with the indicated compound (dissolved in CMC suspension vehicle; compounds are given orally or i.p. one hour before LPS challenge).
Mice are bled 90 min after LPS challenge.
4) Sera are analyzed for TNF content by ELISA as described in J. Immunol.

[1] = tested on: LPS-Induced TNF-α Production From the Murine Cell Line WEHI-265; assay: In vitro inhibition of LPS-induced TNF-α production from the murine cell line WEHI-265; type: cell-based; conditions: Mus musculus, WEHI-265 cells, LPS from E. coli 0111:B4, 20-24 h incubation
Protocol: This test procedure is a standard test used to determine anti-TNF-α activity and to evaluate the usefulness of said compounds for counteracting the biological effects of TNF-α.
1. In Vitro Study: Inhibition of LPS-Induced TNF-α
Production From the Murine Cell Line WEHI-265
1) Cells (obtained from cell cultures containing≤10^6 cells/ml) are suspended at 0.2×10^6 cells/ml in complete medium (RPMI1640, with 10% FCS, 10^-5 M 2-ME, 2 mM glutan-fine and 10 mM HEPES buffer) and plated in CoStar 24 well plates (1.0 ml/well).
2) Compounds are dissolved in the appropriate vehicle at 400 times the concentration to be tested, and 5 μl of compound is added to the wells.
3) LPS (from E. coli 0111:B4) is diluted to 6 μg/ml and 1.0 ml is added to wells.
4) Plates are incubated 20-24 hours in 37° CO2 incubator.
5) Supernatant fluids are collected and analyzed for TNF content as described in J. Immunol., 142:3884.

[2] = tested on: LPS/Galactosamine-Induced Lethality; assay: In vivo inhibition of LPS/galactosamine-induced lethality in mice; design: species or system mice (C57BI/6J); conditions: 25 mg/kg oral or i.p. one hour before LPS (100 ng) and d-galactosamine (8 mg) i.p.; survival at 24 hours
Protocol: This test procedure is a standard test used to determine activity against septic shock.
3. In Vivo Study: Inhibition of LPS/Galactosamine-Induced Lethality.
1) Mice (C57BI/6J males, 6-8 weeks of age) are dosed with the indicated compound (dissolved in CMC suspension vehicle; compounds are given orally or i.p. one hour before challenge with LPS and d-galactosamine).
2) Mice are challenged i.p. with a mixture of LPS (from E. coli 0111:B4; 100 ng) and d-galactosamine (8 mg).
3) Survival is determined 24 hours after challenge. See procedure published in J. Exp. Med. 165:657 (1987)

In the case of `C=CCC(CNC)C1c2ccccc2COc2ccccc21` (stereo not shown) [Compound IA, N-methyl-2-[6,11-dihydro-dibenzo[b,e]oxepin-11-yl]-pent-4-en-1-amine], the inhibition in vivo at 25 mg/kg (LPS-Induced Serum TNF) is reported as 44% and the inhibition at 10 µM [1] is reported as 54%.
`CCOC(CN(C)C)C1c2ccccc2CCc2ccccc21` (stereo not drawn) [Compound IB, β-ethoxy-10,11-dihydro-N, N-dimethyl-5 H-dibenzo[a,d]cycloheptene-5-ethanamine] was tested, and the inhibition in vivo at 25 mg/kg (LPS-Induced Serum TNF) was 25%, the inhibition at 10 µM [1] was 35% and the “# DEAD/TOTAL AT 25 MG/KG” value [2] was 8/10.
`C=CC(CCN(C)C)C1c2ccccc2CCc2ccccc21` (stereo not shown) [Compound IC, 3-(10,11-dihydro-5H-dibenzo[a,d]cyclohepten-5-yl)-N,N-dimethyl-4-pentenamine] was tested, and the inhibition at 10 µM [1] was 46%.
`CCOC(C(=O)N(C)C)C1c2ccccc2CCc2ccccc21` (stereo not shown) [Compound IE, 2-ethoxy-2-[10,11-dihydro-5H-dibenzo[a,d]cyclohepten-5-yl]-N,N-dimethyl-acetamide] was tested, and the inhibition in vivo at 25 mg/kg (LPS-Induced Serum TNF) was 37%, the inhibition at 10 µM [1] was 49% and the “# DEAD/TOTAL AT 25 MG/KG” value [2] was 10/10.
In the case of `CNCCC1c2ccccc2CCc2ccccc21` [Compound K1], the inhibition in vivo at 25 mg/kg (LPS-Induced Serum TNF) is reported as 71%, the inhibition at 10 µM [1] is reported as 15% and the “# DEAD/TOTAL AT 25 MG/KG” value [2] is reported as 1/10.
For `CCCC(CN(C)C)C1c2ccccc2COc2ccccc21` (stereo not shown) [Compound K2], the inhibition in vivo at 25 mg/kg (LPS-Induced Serum TNF) was 40%, the inhibition at 10 µM [1] was 54% and the “# DEAD/TOTAL AT 25 MG/KG” value [2] was 7/10.
Compound `CCCC(CNC)C1c2ccccc2COc2ccccc21` (stereo not shown) [Compound K3, N-methyl-2-[6,11-dihydro-dibenzo[b,e]oxepin-11-yl]-pentanamine] has an inhibition in vivo at 25 mg/kg (LPS-Induced Serum TNF) of 27% and an inhibition at 10 µM [1] of 73%.
Compound `CCCC(CN(C)C(=O)OCC)C1c2ccccc2COc2ccccc21` (stereo not shown) [Compound K4] has an inhibition at 10 µM [1] of 48%.
In the case of `CCCC(CN(C)C(C)=O)C1c2ccccc2COc2ccccc21` (stereo not shown) [Compound K5], the inhibition at 10 µM [1] is reported as 46% and the “# DEAD/TOTAL AT 25 MG/KG” value [2] is reported as 10/10.
For `CCCC(CN(C)C)C1c2ccccc2CCc2ccc(Cl)cc21` (stereo not shown) [Compound K6], the inhibition at 10 µM [1] was 64%.
Compound `CCCC(CNC)C1c2ccccc2CCc2ccc(Cl)cc21` (stereo not shown) [Compound K7] has an inhibition in vivo at 25 mg/kg (LPS-Induced Serum TNF) of 58% and an inhibition at 10 µM [1] of 39%.
For `CN(C)CC(O)C1c2ccccc2CCc2ccccc21` (stereo not shown) [IF], the inhibition in vivo at 25 mg/kg (LPS-Induced Serum TNF) was 24%, the inhibition at 10 µM [1] was 4% and the “# DEAD/TOTAL AT 25 MG/KG” value [2] was 8/10.
`CCOC(CNC)C1c2ccccc2CCc2ccccc21` (stereo not shown) [IG] was tested, and the inhibition in vivo at 25 mg/kg (LPS-Induced Serum TNF) was 51%, the inhibition at 10 µM [1] was 35% and the “# DEAD/TOTAL AT 25 MG/KG” value [2] was 7/9.
`C=CCC(CN(C)C)C1c2ccccc2COc2ccccc21` (stereo not shown) [IH] was tested, and the inhibition in vivo at 25 mg/kg (LPS-Induced Serum TNF) was 30% and the inhibition at 10 µM [1] was 23%.
In the case of `C=CCC(CN(C)C(C)=O)C1c2ccccc2COc2ccccc21` (stereo not shown) [IJ], the inhibition at 10 µM [1] is reported as 34%.
With `C=CCC(CN(C)C(=O)OCC)C1c2ccccc2COc2ccccc21` (stereo not shown) [IK] the inhibition at 10 µM [1] was 31%.
For `C=CCC(CN(C)C(C)=O)C1c2ccccc2CCc2ccc(Cl)cc21` (stereo not shown) [IL], the inhibition in vivo at 25 mg/kg (LPS-Induced Serum TNF) was 42% and the inhibition at 10 µM [1] was 49%.
For `C=CCC(CN(C)C)C1c2ccccc2CCc2ccc(Cl)cc21` (stereo not shown) [IM], the inhibition at 10 µM [1] was 50%.
`C=CCC(CNC)C1c2ccccc2CCc2ccc(Cl)cc21` (stereo not shown) [IN] gave an inhibition at 10 µM [1] of 28%.
